How the values were obtained:
Format in all cases: binding
[1] = biological target: T1, SW480 colon carcinoma cells lysate proteins (Homo sapiens, UniProt Q15084); conditions: PreyGene PDIA6
T1 sequence (Q15084 20-440): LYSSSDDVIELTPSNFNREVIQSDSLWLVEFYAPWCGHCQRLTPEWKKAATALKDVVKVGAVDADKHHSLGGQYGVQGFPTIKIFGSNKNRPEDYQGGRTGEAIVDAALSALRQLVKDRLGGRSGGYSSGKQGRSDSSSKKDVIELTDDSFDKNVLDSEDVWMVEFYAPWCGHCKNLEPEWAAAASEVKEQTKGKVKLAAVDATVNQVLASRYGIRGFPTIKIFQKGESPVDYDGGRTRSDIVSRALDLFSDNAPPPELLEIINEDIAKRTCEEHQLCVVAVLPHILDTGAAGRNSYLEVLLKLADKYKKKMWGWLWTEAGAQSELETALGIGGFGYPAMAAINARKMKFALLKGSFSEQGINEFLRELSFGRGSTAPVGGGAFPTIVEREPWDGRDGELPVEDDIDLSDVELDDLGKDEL

[2] = biological target: SW480 colon carcinoma cells lysate proteins (Homo sapiens, UniProt Q14204); conditions: PreyGene DYNC1H1
[3] = biological target: SW480 colon carcinoma cells lysate proteins (Homo sapiens, UniProt Q13283); conditions: PreyGene G3BP1; SW480 cells
Sequence of SW480 colon carcinoma cells lysate proteins (Homo sapiens, UniProt Q13283) (Q13283 whole entry): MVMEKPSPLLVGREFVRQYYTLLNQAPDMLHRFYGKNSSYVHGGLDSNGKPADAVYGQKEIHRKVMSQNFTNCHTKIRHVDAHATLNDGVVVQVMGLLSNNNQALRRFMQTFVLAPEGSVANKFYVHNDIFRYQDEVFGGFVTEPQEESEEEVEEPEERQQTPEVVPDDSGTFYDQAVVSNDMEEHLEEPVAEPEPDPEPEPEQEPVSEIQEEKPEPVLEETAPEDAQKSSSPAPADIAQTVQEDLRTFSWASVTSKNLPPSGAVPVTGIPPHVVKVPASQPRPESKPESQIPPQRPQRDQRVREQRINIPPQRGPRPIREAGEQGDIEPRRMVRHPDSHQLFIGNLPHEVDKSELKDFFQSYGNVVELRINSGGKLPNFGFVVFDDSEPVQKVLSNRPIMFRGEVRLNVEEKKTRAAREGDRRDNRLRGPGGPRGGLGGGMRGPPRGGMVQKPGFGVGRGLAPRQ

[4] = biological target: T2, SW480 colon carcinoma cells lysate proteins (Homo sapiens, UniProt O60664); conditions: PreyGene PLIN3
T2 sequence (O60664 1-434): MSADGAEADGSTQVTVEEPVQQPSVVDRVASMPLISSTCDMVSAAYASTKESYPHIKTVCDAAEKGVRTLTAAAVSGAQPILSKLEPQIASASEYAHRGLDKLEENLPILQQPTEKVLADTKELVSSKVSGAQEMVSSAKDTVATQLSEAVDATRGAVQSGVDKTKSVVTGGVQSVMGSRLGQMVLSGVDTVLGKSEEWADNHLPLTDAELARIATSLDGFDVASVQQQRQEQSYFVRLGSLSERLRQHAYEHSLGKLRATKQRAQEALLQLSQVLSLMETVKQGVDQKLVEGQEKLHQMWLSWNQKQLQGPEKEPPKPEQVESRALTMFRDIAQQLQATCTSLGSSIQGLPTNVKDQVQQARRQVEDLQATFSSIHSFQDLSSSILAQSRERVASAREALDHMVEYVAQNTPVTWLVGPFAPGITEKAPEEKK

[5] = biological target: SW480 colon carcinoma cells lysate proteins (Homo sapiens, UniProt Q71U36); conditions: PreyGene TUBA1A; SW480 cells
Sequence of SW480 colon carcinoma cells lysate proteins (Homo sapiens, UniProt Q71U36) (Q71U36 whole entry): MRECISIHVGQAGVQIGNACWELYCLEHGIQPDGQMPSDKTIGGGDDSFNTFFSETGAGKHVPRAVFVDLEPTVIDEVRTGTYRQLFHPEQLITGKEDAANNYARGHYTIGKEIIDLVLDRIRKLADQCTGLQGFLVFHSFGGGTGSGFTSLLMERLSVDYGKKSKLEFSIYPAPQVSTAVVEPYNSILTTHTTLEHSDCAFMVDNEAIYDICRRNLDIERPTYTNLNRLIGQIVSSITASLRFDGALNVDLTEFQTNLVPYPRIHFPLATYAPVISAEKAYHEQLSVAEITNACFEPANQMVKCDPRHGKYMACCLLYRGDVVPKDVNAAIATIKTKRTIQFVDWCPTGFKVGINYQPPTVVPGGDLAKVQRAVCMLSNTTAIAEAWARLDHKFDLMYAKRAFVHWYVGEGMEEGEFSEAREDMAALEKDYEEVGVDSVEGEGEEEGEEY

[6] = biological target: SW480 colon carcinoma cells lysate proteins (Homo sapiens, UniProt Q15056); conditions: PreyGene EIF4H
[7] = biological target: T3, SW480 colon carcinoma cells lysate proteins (Homo sapiens, UniProt P68104); conditions: PreyGene EEF1A1; SW480 cells
T3 sequence (P68104 1-462): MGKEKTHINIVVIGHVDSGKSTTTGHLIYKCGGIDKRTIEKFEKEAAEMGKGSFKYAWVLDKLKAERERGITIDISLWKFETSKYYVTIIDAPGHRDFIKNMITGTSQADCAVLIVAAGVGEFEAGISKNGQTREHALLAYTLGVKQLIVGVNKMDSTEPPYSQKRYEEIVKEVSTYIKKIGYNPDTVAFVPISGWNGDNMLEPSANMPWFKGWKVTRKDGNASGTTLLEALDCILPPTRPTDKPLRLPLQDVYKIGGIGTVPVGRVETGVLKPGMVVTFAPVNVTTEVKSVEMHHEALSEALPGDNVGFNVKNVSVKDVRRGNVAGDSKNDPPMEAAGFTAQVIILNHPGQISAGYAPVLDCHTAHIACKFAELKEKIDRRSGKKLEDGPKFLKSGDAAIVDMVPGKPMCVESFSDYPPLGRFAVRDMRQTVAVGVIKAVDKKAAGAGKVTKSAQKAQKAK

[8] = biological target: T4, SW480 colon carcinoma cells lysate proteins (Homo sapiens, UniProt P00492); conditions: PreyGene HPRT1
T4 sequence (P00492 1-218): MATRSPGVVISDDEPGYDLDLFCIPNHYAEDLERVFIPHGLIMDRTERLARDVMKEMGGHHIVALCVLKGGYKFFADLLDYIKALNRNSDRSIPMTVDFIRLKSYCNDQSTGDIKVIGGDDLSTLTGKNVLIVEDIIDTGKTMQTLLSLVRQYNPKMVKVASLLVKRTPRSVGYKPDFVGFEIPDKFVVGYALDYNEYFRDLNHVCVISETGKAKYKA

[9] = biological target: SW480 colon carcinoma cells lysate proteins (Homo sapiens, UniProt Q9Y230); conditions: PreyGene RUVBL2
Sequence of SW480 colon carcinoma cells lysate proteins (Homo sapiens, UniProt Q9Y230) (Q9Y230 whole entry): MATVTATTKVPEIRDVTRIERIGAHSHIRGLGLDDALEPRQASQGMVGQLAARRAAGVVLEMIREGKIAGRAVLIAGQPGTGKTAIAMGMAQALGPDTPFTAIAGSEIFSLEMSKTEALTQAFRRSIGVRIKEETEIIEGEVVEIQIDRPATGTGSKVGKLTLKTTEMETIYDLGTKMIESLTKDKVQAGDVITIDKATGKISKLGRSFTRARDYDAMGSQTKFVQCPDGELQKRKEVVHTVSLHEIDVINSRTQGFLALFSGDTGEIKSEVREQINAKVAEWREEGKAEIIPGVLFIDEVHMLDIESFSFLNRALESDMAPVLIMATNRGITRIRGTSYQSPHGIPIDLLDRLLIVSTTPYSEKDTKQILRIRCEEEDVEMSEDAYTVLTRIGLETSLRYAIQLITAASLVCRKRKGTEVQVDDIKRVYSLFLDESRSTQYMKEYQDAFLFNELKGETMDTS

C[C@H](Oc1cc(-c2cnn(C3CCNCC3)c2)cnc1N)c1c(Cl)ccc(F)c1Cl [(5)-crizotinib]
AvgP [1]: 0.4427 | SC.Exp. 1-1 [1]: 3 | SC.Exp. 1-2 [1]: 4 | SC.Exp. 2-1 [1]: 0 | SC.Exp. 2-2 [1]: 0 | Sum (SC.Exp.) [1]: 7 | AvgP [2]: 0.2458 | SC.Exp. 1-1 [2]: 13 | SC.Exp. 1-2 [2]: 13 | SC.Exp. 2-1 [2]: 2 | SC.Exp. 2-2 [2]: 2 | Sum (SC.Exp.) [2]: 30 | AvgP [3]: 0 | SC.Exp. 1-1 [3]: 2 | SC.Exp. 1-2 [3]: 2 | SC.Exp. 2-1 [3]: 3 | SC.Exp. 2-2 [3]: 2 | SC.Exp. Sum [3]: 9 | AvgP [4]: 0.8429 | SC.Exp. 1-1 [4]: 4 | SC.Exp. 1-2 [4]: 3 | SC.Exp. 2-1 [4]: 3 | SC.Exp. 2-2 [4]: 3 | Sum (SC.Exp.) [4]: 13 | AvgP [5]: 0 | SC.Exp. 1-1 [5]: 12 | SC.Exp. 1-2 [5]: 11 | SC.Exp. 2-1 [5]: 9 | SC.Exp. 2-2 [5]: 10 | SC.Exp. Sum [5]: 42 | AvgP [6]: 0.4095 | SC.Exp. 1-1 [6]: 3 | SC.Exp. 1-2 [6]: 2 | SC.Exp. 2-1 [6]: 0 | SC.Exp. 2-2 [6]: 0 | Sum (SC.Exp.) [6]: 5 | AvgP [7]: 0 | SC.Exp. 1-1 [7]: 23 | SC.Exp. 1-2 [7]: 21 | SC.Exp. 2-1 [7]: 8 | SC.Exp. 2-2 [7]: 8 | SC.Exp. Sum [7]: 60 | AvgP [8]: 0.1891 | SC.Exp. 1-1 [8]: 2 | SC.Exp. 1-2 [8]: 0 | SC.Exp. 2-1 [8]: 0 | SC.Exp. 2-2 [8]: 0 | Sum (SC.Exp.) [8]: 2 | AvgP [9]: 0.4297 | SC.Exp. 1-1 [9]: 3 | SC.Exp. 1-2 [9]: 3 | SC.Exp. 2-1 [9]: 0 | SC.Exp. 2-2 [9]: 0 | Sum (SC.Exp.) [9]: 6
